The values below come from ChEMBL document CHEMBL3763083, “Sulfasalazine in ionic liquid form with improved solubility and exposure” (Medchemcomm, 2015).

By AUC(0-inf) is commonly meant total exposure, with the tail of the curve extrapolated. Low values mean less exposure, high ones more exposure. A word on the solubility: it is the concentration that dissolves in the medium under given conditions. Read a high solubility as a readily soluble substance. The Cmax is the peak of the concentration-time curve. As a reminder, the bioavailability is dose-corrected exposure relative to a reference, in per cent. By Tmax is commonly meant the time at which the peak concentration occurs.

Structures are written as SMILES. Values after ≈ are worked out from the molar mass of the structure shown.

The subject of one data set is Liver. Nature of the data set: Drug metabolism in rat liver S9 fractions at 1 uM measured at 0 to 60 mins by LC/MS analysis. As to conditions: s9, 1 µM. It is filed as ADME, subcellular, Liver S9 fraction.
Data set [1] in a line: AUC(infinity) in rat at 50 mg/kg dosed via oral gavage. It is filed as ADME, organism-based. Set-up: dose 50 mg/kg, route oral, time infinity. As to conditions: in vivo.
Data set [2] in a line: Solubility of compound in stimulated intestinal fluid at pH 6.8 measured at 0.5 to 3 hrs by LC/MS analysis. The conditions noted are these: simulated gi fluid. The format is ADME.
Data set [3] in a line: Cmax in rat plasma at 50 mg/kg dosed via oral gavage. It is filed as ADME, organism-based. Set-up: dose 50 mg/kg, route oral.
Data set [4] is described as follows: Solubility of compound in stimulated GI fluid at pH 1.1 measured at 15 to 60 mins by LC/MS analysis. The format is ADME. The conditions noted are these: buffer.
A short description of data set [5]: Oral bioavailability in rat plasma at 50 mg/kg dosed via gavage. It is filed as ADME, organism-based.
Data set [6] is described as follows: Solubility of compound in saline solution after 1 hr by LC/MS analysis. It is filed as physicochemical. As to conditions: buffer.
Data set [7] can be described thus: Drug recovery in rat bile at 50 mg/kg dosed via oral gavage. It is filed as ADME, organism-based. As to conditions: read-out: Drug recovery.
A short description of data set [8]: Thermal stability of compound after 30 mins by thermogravimetric analysis. As to conditions: 0.5 h. It is filed as physicochemical.
Data set [9] is described as follows: Tmax in rat plasma at 50 mg/kg dosed via oral gavage. It is filed as ADME, organism-based.
The nature of data set [10]: Solubility of compound in methanol after 2 hrs. It is filed as physicochemical.
Data set [11] can be described thus: Solubility of compound in phosphate buffer at pH 8 after 1 hr by LC/MS analysis. It is filed as physicochemical. As to conditions: pH 8, 1 h.

Turning to `C[N+](C)(C)CCO.O=C([O-])c1cc(/N=N/c2ccc(S(=O)(=O)Nc3ccccn3)cc2)ccc1O`, the Drug metabolism entry in the data set on Liver was “metabolite_detected”. Besides, in [1], the AUC(0-inf) was found to be 9.34 µM·h. Moreover, the solubility result in data set [2] was “soluble”; in data set [4] it was “soluble”; in data set [6], 39320 µg/mL. In [3], this molecule registered a Cmax of 2360 nM. In data set [5], this molecule yielded a bioavailability of 5.6%. Also, the dose excreted in data set [7] is 1.8%. In data set [8], this molecule yielded a T of 214 °C. Besides, the Tmax in [9] is 15 min.

Take `O=C(O)c1cc(/N=N/c2ccc(S(=O)(=O)Nc3ccccn3)cc2)ccc1O` [SULFASALAZINE]: the solubility entry in data set [10] was “soluble”; in [11] it was 3090 µg/mL (≈ 7.76 mM); in data set [2] it was “soluble”; in [4] it was “soluble”; in data set [6], 10 µg/mL (≈ 0.0251 mM). Further, in the data set with Liver, the Drug metabolism entry is on record as “metabolite_detected”. Moreover, in [8], the T stood at 253 °C.
